Consider 1 compound from PMC7151626, “Antioxidant and α-amylase Inhibitory Activities and Phytocompounds of Clausena indica Fruits” (Medicines, 2020).

This test addresses T1, porcine pancreatic α-amylase (PPA) (Sus scrofa, UniProt P00690).
T1 construct: gene AMY2; native pancreatic enzyme
T1 sequence (P00690 16-511): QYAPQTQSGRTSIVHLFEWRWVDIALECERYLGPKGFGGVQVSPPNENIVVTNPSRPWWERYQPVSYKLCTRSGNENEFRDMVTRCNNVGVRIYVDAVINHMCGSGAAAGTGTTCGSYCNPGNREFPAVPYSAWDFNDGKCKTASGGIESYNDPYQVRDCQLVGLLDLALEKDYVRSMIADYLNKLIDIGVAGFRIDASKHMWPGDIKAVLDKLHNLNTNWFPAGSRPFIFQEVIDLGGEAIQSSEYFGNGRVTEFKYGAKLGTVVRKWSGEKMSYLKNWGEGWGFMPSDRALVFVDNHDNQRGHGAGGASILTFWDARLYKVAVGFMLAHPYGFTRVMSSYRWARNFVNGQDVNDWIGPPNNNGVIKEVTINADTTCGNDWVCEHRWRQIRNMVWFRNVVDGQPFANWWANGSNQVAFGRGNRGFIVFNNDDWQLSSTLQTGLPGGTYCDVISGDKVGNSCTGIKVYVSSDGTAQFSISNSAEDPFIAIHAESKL
Briefly: starch-iodine colorimetric assay, […] nm. In kind it is biochemical. To be noted: read-out: α-Amylase IC50 (mg/mL) (converted).

Turning to `CCCCCCCCCCCCCCCC(=O)O` [palmitic acid], the IC50 was 5.93 mM.
